This is an account of results in publication PMC4979206, “Structural basis of unique ligand specificity of KAI2-like protein from parasitic weed Striga hermonthica” (Scientific Reports, 2016).

Values joined by “and” are separate entries in the source; they are usually repeats but may differ in a detail not shown here. Equal values may be shown once. “Also recorded” adds a separate entry of the source.

Assay [1] deals with T1, ShKAI2iB (Striga hermonthica, UniProt A0A0M3PN85, C270S). The assay can be described thus: ITC binding to ShKAI2iB (wild type). The procedure: (§1) The coding sequence cDNA of ShKAI2iB was amplified by PCR using total complementary DNA from the total RNA of 1-day conditioned Striga seeds. ShKAI2iB (1–270, C270S) was designed for crystallization and other assays. For expression in Escherichia coli, the PCR product was cloned into an expression vector pGEX-6P-3 (GE Healthcare) and subsequently transformed into E. coli strain Rosetta (DE3) (Novagen). IPTG-induced overexpression was performed for 20 h at 25 °C. For purification, cell pellets were lysed by sonication in buffer A (20 mM Tris-HCl, pH 8.0, 0.3 M NaCl, 1 mM DTT), and the soluble fraction separated by centrifugation was purified using Glutathione Sepharose 4B resin (GE Healthcare) and a Resource Q anion-exchange column (GE Healthcare). ShKAI2iB mutants were overexpressed and purified with the same procedure as wild-type protein. For crystallization, buffer exchange accompanied by concentration was performed using Vivaspin 20 (5,000 MWCO PES) (Sartorius). Purified ShKAI2iB was dialyzed against buffer B (20 mM HEPES-NaOH, pH 8.0, 50 mM NaCl) for the ITC experiments and the intrinsic fluorescence assay.
(§2) Binding assays of ShKAI2iB and KAR1 were performed using a MicroCal iTC200 isothermal titration calorimeter (GE Healthcare). Prior to the ITC experiments, concentrated ShKAI2iB was dialyzed against a buffer consisting of 20 mM HEPES-NaOH, pH 8.0, and 50 mM NaCl to remove dithiothreitol and then adjusted to a final concentration of 150 μM. The sample cell was filled with ShKAI2iB solution (204 μl). […] of 3 mM KAR1 or 3 mM rac-GR24 (equimolar mixture of two enantiomers: GR24^5DS and GR24^ent-5DS) was injected into the prepared protein solution by 20 consecutive 2.0 μl aliquots at 150 s intervals at 10 °C. The first injection volume was 0.4 μl, and the observed thermal peak was excluded from the data analyses. Duplicate experiments were performed independently. A negative control was made by titrating 3 mM KAR1 into a buffer (20 mM HEPES, pH 8.0, 50 mM NaCl) in the same manner. Data fitting was performed using Origin software in the “one set of sites” mode. The dissociation constant (KD) values were calculated from duplicate thermograms (mean ± S.D.).

For assay [2], the system named is KAI2. Also noted: method as in PMID 25126711. To be noted: cited from earlier work.
Assay [3] relates to KAI2. Also noted: method as in PMID 25126711. To be noted: cited from earlier work. This is another data set of the same source.
The target of assay [4] is T1, ShKAI2iB. Put plainly: Enzymatic degradation (hydrolysis) assay of rac-GR24 with HPLC. In kind it is biochemical. To be noted: 10 μM rac-GR24, 6 μg ml^−1 protein, 3 h, 37 °C. The procedure:
The enzymatic degradation assay of rac-GR24 was performed in a total volume of 1 ml of PBS buffer containing 10 μM rac-GR24. Purified OsD14[23] and ShKAI2iB were added at a final concentration of 6 μg ml^−1 and incubated for 3 h at 37 °C. Then 100 mg of NaCl and 100 μl of 0.1 M HCl were added to each reaction solution, and the reaction solutions were extracted with 400 μl of ethyl acetate three times. The ethyl acetate layers were combined and dried in vacuo and dissolved in 50 μl of methanol. For each layer, 10 μl was applied to the HPLC analyses. The reverse-phase chromatographic separation was performed on a Jasco HPLC system that was equipped with an HPLC pump of model PU 2080 (Jasco) and a photodiode array detector MD1510 (Jasco). The system was controlled by the ChromNAV (Ver. 1.18.07) software program (Jasco). The analytical column was a CAPCELL CORE C18 (Φ 4.6 × 100 mm, Shiseido). The analytes were eluted under gradient conditions using methanol ramped linearly to 90% methanol at 9 min and held for 4.5 min before resetting to the original conditions. The contents of rac-GR24 was calculated by the peak area at the retention time 6.2 min with the regression equation obtained from the calibration curve produced using a dilution series of rac-GR24 solution. […] Statistical differences between the groups were calculated with ANOVA analysis followed by Tukey–Kramer test.

The target in assay [5] is T1, ShKAI2iB. Put plainly: Intrinsic fluorescence binding assay. The procedure:
The coding sequence cDNA of ShKAI2iB was amplified by PCR using total complementary DNA from the total RNA of 1-day conditioned Striga seeds. ShKAI2iB (1–270, C270S) was designed for crystallization and other assays. For expression in Escherichia coli, the PCR product was cloned into an expression vector pGEX-6P-3 (GE Healthcare) and subsequently transformed into E. coli strain Rosetta (DE3) (Novagen). IPTG-induced overexpression was performed for 20 h at 25 °C. […] Purified ShKAI2iB was dialyzed against buffer B (20 mM HEPES-NaOH, pH 8.0, 50 mM NaCl) for the ITC experiments and the intrinsic fluorescence assay.
KD values were also determined by using intrinsic fluorescence assays. Fluorescence measurements were conducted as previously described[16] with minor modifications. […] Flat-bottomed, black 96 well plates were used to read fluorescence intensity using a Tecan Infinite M1000 monochromator. Measurements were taken at room temperature under a 285 nm excitation wavelength, a 333 nm emission wavelength, 50 flashes, and a 400 Hz flash frequency with a gain of 70 and a 2 μs integration time. ΔF (rfu, relative fluorescence units) was calculated by subtracting the fluorescence of the DMSO control. […]

Another assay relates to ShKAI2iB S95A. The assay can be described thus: ITC binding to ShKAI2iB S95A mutant. The arrangement: species or system Striga hermonthica. The procedure: as §1
Binding assays of ShKAI2iB and KAR1 were performed using a MicroCal iTC200 isothermal titration calorimeter (GE Healthcare). […] The dissociation constant (KD) values were calculated from duplicate thermograms (mean ± S.D.). […]

Another assay concerns the target ShKAI2iB L142A (Striga hermonthica, UniProt A0A0M3PN85, C270S/L142A). Put plainly: ITC binding to ShKAI2iB L142A mutant. As to the method:
as §1, §2
(§3) Supplementary Figure 4. Results of ITC experiments between ShKAI2iB mutants and KAR1. ITC experiments were performed b y titrating KAR1 into ShKA I2iB mutants (a, F194A; b, S95A; c, L142A; d, F190L; e, V139 L) or into buffer as a negat ive control (f). The upper panel illustrates raw ITC data. The bottom panel represents data of the enthalpy cha nge deri ved fr om the upper panel. Corres ponding […]
(§4) (1 picture or pasted object on this page, not shown here)

The target in a further assay is ShKAI2iB F194A (Striga hermonthica, UniProt A0A0M3PN85, C270S/F194A). Put plainly: ITC binding to ShKAI2iB F194A mutant. The procedure: as §1, §2, §3, §4
For a further assay, the target named is ShKAI2iB V139L (Striga hermonthica, UniProt A0A0M3PN85, C270S/V139L). The assay can be described thus: ITC binding to ShKAI2iB V139L mutant. The procedure:
as §1
(§5) Binding assays of ShKAI2iB and KAR1 were performed using a MicroCal iTC200 isothermal titration calorimeter (GE Healthcare). Prior to the ITC experiments, concentrated ShKAI2iB was dialyzed against a buffer consisting of 20 mM HEPES-NaOH, pH 8.0, and 50 mM NaCl to remove dithiothreitol and then adjusted to a final concentration of 150 μM. The sample cell was filled with ShKAI2iB solution (204 μl). Two microliters of 3 mM KAR1 or 3 mM rac-GR24 (equimolar mixture of two enantiomers: GR24^5DS and GR24^ent-5DS) was injected into the prepared protein solution by 20 consecutive 2.0 μl aliquots at 150 s intervals at 10 °C. The first injection volume was 0.4 μl, and the observed thermal peak was excluded from the data analyses. Duplicate experiments were performed independently. […] The dissociation constant (KD) values were calculated from duplicate thermograms (mean ± S.D.). […]

The next assay has as its target ShKAI2iB F190L (Striga hermonthica, UniProt A0A0M3PN85, C270S/F190L). The assay can be described thus: ITC binding to ShKAI2iB F190L mutant. As to the method: as §1, §5
In a further assay the test system is S. hermonthica. Also noted: method as in PMID 26228149. To be noted: cited from earlier work.

Sequence of ShKAI2iB V139L (A0A0M3PN85 1-270 V139L/C270S): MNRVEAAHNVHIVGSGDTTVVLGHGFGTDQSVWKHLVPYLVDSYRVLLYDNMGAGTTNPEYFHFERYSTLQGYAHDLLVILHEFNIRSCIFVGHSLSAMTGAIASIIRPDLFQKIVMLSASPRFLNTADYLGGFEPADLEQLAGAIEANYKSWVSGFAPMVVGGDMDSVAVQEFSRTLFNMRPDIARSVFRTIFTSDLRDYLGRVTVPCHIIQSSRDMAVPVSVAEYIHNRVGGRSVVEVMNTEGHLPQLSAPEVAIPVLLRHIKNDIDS
Sequence of ShKAI2iB L142A (A0A0M3PN85 1-270 L142A/C270S): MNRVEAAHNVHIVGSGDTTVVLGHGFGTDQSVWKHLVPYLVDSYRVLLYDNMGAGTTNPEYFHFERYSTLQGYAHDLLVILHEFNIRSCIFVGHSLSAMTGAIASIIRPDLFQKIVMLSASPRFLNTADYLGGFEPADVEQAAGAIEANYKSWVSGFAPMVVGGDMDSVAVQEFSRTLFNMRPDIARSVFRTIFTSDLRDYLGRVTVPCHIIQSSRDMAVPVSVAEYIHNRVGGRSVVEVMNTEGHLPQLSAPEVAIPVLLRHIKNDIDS
Sequence of ShKAI2iB F194A (A0A0M3PN85 1-270 F194A/C270S): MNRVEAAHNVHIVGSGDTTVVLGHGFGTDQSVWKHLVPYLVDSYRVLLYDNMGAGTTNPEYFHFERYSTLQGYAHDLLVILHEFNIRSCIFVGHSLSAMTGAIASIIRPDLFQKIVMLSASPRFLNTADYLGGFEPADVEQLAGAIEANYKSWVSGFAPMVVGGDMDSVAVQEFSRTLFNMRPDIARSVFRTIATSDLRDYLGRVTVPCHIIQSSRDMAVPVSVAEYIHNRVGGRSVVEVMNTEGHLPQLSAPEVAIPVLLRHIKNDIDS
T1 sequence (A0A0M3PN85 1-270 C270S): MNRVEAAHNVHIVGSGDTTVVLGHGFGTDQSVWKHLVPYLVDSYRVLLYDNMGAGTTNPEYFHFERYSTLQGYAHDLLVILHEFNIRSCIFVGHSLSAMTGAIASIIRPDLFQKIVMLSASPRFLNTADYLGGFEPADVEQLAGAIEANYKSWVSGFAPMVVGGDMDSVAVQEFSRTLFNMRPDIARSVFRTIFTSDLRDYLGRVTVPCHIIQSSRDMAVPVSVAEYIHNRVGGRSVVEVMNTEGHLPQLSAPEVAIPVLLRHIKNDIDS
Sequence of ShKAI2iB F190L (A0A0M3PN85 1-270 F190L/C270S): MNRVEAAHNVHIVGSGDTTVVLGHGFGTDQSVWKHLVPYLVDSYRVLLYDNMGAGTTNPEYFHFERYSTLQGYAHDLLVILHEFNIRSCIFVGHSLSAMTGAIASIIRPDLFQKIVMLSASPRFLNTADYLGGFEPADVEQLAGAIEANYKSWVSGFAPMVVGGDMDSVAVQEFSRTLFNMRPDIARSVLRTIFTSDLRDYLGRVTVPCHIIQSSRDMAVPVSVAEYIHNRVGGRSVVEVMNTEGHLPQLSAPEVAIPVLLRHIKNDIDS

Consider `CC1=CC(OC=C2C(=O)OC3c4ccccc4CC23)OC1=O` (racemic) [rac-GR24], for which the “heat change in ITC (binding)” value at ShKAI2iB [1] (wild-type ShKAI2iB, 3 mM ligand titrated) was “no detectable heat change”. Besides, the “binding to KAI2” value in the assay with KAI2 [2] is “able to bind”. In addition, the “hydrolysis by KAI2” value in the assay on KAI2 [3] is “exhibits hydrolytic activity”. For the same molecule, the “hydrolysis by ShKAI2iB” value is “not capable of hydrolyzing” at ShKAI2iB [4]; “unable to bind and hydrolyze” on ShKAI2iB [4] (listed as GR24). Besides, on ShKAI2iB [5] (wild-type ShKAI2iB), the “fluorescence change (binding)” value was “no detectable heat change or fluorescence change”.

Turning to `Cc1c2ccocc-2oc1=O` [KAR1, 3-methyl-2H-furo [2,3-c] pyran-2-one], the Kd is 77.6 ± 3.4 µM on ShKAI2iB [1]; 196 ± 24 µM at ShKAI2iB L142A; 107 ± 10 µM on ShKAI2iB F194A; 35.6 µM and 36 µM at ShKAI2iB V139L (KD, ITC); 70 ± 3.4 µM on ShKAI2iB [5]. Moreover, the “N (number of sites)” value on ShKAI2iB [1] (wild-type ShKAI2iB, ITC) is recorded as 0.91 ± 0.05. Besides, the ΔG entry was “–5.35 kcal/mol” on ShKAI2iB [1] (wild-type ShKAI2iB, ITC); “–4.76 kcal/mol” on ShKAI2iB L142A (L142A mutant); “–5.11 kcal/mol” on ShKAI2iB F194A (F194A mutant); “–4.75 kcal/mol” at ShKAI2iB F190L. Besides, the “ΔS (entropy change)” value on ShKAI2iB [1] (wild-type ShKAI2iB, ITC, 10 °C) was “–3.99 cal mol^–1 deg^–1”. For the same molecule, in the assay with ShKAI2iB S95A, the “heat change in ITC (binding)” value was “almost no heat change; also recorded: abolishes binding”. The ΔH result on ShKAI2iB L142A (L142A mutant) is reported as “–7.00 ± 0.70 kcal mol^–1”; at ShKAI2iB F194A (F194A mutant) it was “–13.24 ± 63.94 kcal mol^–1”; at ShKAI2iB V139L, “–12.87 ± 0.03 kcal mol^–1”; at ShKAI2iB F190L, “–11.71 ± 8.89 kcal mol^–1”. For the same molecule, the ΔS entry on ShKAI2iB L142A (L142A mutant) is listed as “–7.90 cal mol^–1 deg^–1”; at ShKAI2iB F194A (F194A mutant), “–28.7 cal mol^–1 deg^–1”; at ShKAI2iB V139L, “–24.8 cal mol^–1 deg^–1”; at ShKAI2iB F190L it was “–24.6 cal mol^–1 deg^–1”. For the same molecule, the “binding to KAI2” value in the assay with KAI2 [2] is on record as “able to bind”. The “change of ITC result versus wild type” value at ShKAI2iB F194A (F194A mutant) is “no significant change”. For the same molecule, the “induction of germination of S. hermonthica” value in the assay on S. hermonthica is recorded as “failed to induce germination”.

In general, Kd refers to the concentration at which binding is half-saturated. A lower Kd goes with a tighter complex.
